Assays:
normotensive rats = assay: Blood pressure and heart rate in the conscious normotensive rat (NR); type: in vivo; conditions: 5 mg/kg os
Description: Blood pressure recordings have been made in conscious normotensive unrestrained rats weighing approximately 300 g, via a catheter chronically inserted into the left common carotid artery. Implantation of arterial cannula was made under sodium pentobarbital anesthesia (50 mg/kp i.p.) A 1 cm long incision was made through the previously shaved ventral surface of the neck and the tissues overlying the trachea parted by blunt dissection to reveal the carotid artery. The polyethylene catheter used was made with PE 50 tubing, previously filled with saline containing 250 I.U./ml heparin. The tip of the cannula was pushed at least 2 cm inside the vessel toward the heart. The cannula was then firmly tied and passed beneath the skin to emerge from a small incision in the back of the neck. During the post-operative period and before the start of each recording session, the cannula was flushed through daily with saline containing heparin (250 I.U./ml). The experiments were performed two days after surgery. Drugs were administered by gastric gavage.

[1] = test system: spontaneously hypertensive male rats, strain MHS; assay: Anti-hypertensive activity in the spontaneously hypertensive rat (MHS): blood pressure and heart rate at the tail; type: in vivo
Description: 1. Spontaneously Hypertensive Rat (MHS)
Four spontaneously hypertensive male rats, strain MHS, weight 250 to 300 g for each group were used. The animals were treated for four consecutive days. The drugs were administered by gastric gavage while suspended in 5% arabic gum (0.2 ml/100 g body weight), and blood pressure (BP) and heart rate (HR) were measured at the tail by BP Recorder W+W. Blood pressure and heart rate were measured on the first and fourth day of treatment 1 hour before and 1 and 5 hours after drug administration.

[2] = Acute toxicity (LD50) in mice; type: in vivo, mouse; conditions: mouse, in vivo; male mice; oral; observed for seven days
Source text: Evaluation of the Toxicity (LD50)
Ten male mice for each group were orally treated with drugs at different dose levels for the determination of lethal dose 50 (LD50).

Structure (SMILES) | Change in Blood Pressure after Treatment, 30' (normotensive rats) | Change in heart rate after treatment, 30' (normotensive rats) | Change in Blood Pressure after Treatment, 60' (normotensive rats) | Change in heart rate after treatment, 60' (normotensive rats) | Change in Blood Pressure after Treatment, 120' (normotensive rats) | Change in heart rate after treatment, 120' (normotensive rats) | Change in Blood Pressure after Treatment, 180' (normotensive rats) | Change in heart rate after treatment, 180' (normotensive rats) | Change in Blood Pressure after Treatment, 240' (normotensive rats) | Change in heart rate after treatment, 240' (normotensive rats) | Change in Blood Pressure after Treatment, 360' (normotensive rats) | Change in heart rate after treatment, 360' (normotensive rats) | Change in Blood Pressure after Treatment, 24h (normotensive rats) | Change in heart rate after treatment, 24h (normotensive rats) | Change in BP, 1 hr after dose, first day ([1]; 2 mg/kg os) | Change in HR, 1 hr after dose, first day ([1]; 2 mg/kg os) | Change in HR, 5 hr after dose, first day ([1]; 2 mg/kg os) | Change in BP, 5 hrs after dose, first day ([1]; 2 mg/kg os) | Change in BP, 1 hr after dose, fourth day ([1]; 2 mg/kg os) | Change in HR, 1 hr after dose, fourth day ([1]; 2 mg/kg os) | further results
CN1C[C@H](CC(C#N)C(=O)N2CCCC2)C[C@@H]2c3cccc4[nH]cc(c34)C[C@H]21 (stereo partly drawn) [Example 1133, 2-Cyano-3-(6'-methylergoline-8'β)-N-propionyl-pyrrolidine] | -15 mm Hg | -25 b/min | -20 mm Hg | -45 b/min | -15 mm Hg | -40 b/min | -10 mm Hg | -40 b/min | -9 mm Hg | -10 b/min | 0 mm Hg | -5 b/min | +5 mm Hg | 0 b/min | -20 mm Hg | -33 b/min | -28 b/min | -11 mm Hg | -21 mm Hg | -20 b/min | Change in HR, 5 hr after dose, fourth day ([1]; 2 mg/kg os): -3 b/min; Change in BP, 5 hrs after dose, fourth day ([1]; 2 mg/kg os): -10 mm Hg; Change in BP, 1 hr after dose, first day ([1]; 5 mg/kg os): -24 mm Hg; Change in HR, 1 hr after dose, first day ([1]; 5 mg/kg os): 0 b/min; Change in HR, 5 hr after dose, first day ([1]; 5 mg/kg os): +13 b/min; Change in BP, 5 hrs after dose, first day ([1]; 5 mg/kg os): -9 mm Hg; Change in BP, 1 hr after dose, fourth day ([1]; 5 mg/kg os): -42 mm Hg; Change in HR, 1 hr after dose, fourth day ([1]; 5 mg/kg os): -13 b/min; Change in HR, 5 hr after dose, fourth day ([1]; 5 mg/kg os): -8 b/min; Change in BP, 5 hrs after dose, fourth day ([1]; 5 mg/kg os): -25 mm Hg; LD50 at 168 h [2]: 500 mg/kg
CCNC(=O)C(C#N)C[C@@H]1C[C@@H]2c3cccc4[nH]cc(c34)C[C@H]2N(C)C1 (stereo partly drawn) [Example 1138, 2-Cyano-3-(6'-methylergoline-8'β)-N-ethylpropionamide] | -10 mm Hg | -15 b/min | -20 mm Hg | -30 b/min | -15 mm Hg | -30 b/min | -10 mm Hg | -15 b/min | -10 mm Hg | 0 b/min | 0 mm Hg | +5 b/min | 0 mm Hg | +10 b/min | -23 mm Hg | -25 b/min | -10 b/min | -14 mm Hg | -30 mm Hg | -47 b/min | Change in HR, 5 hr after dose, fourth day ([1]; 2 mg/kg os): -12 b/min; Change in BP, 5 hrs after dose, fourth day ([1]; 2 mg/kg os): -15 mm Hg; Change in BP, 1 hr after dose, first day ([1]; 5 mg/kg os): -25 mm Hg; Change in HR, 1 hr after dose, first day ([1]; 5 mg/kg os): -8 b/min; Change in HR, 5 hr after dose, first day ([1]; 5 mg/kg os): +5 b/min; Change in BP, 5 hrs after dose, first day ([1]; 5 mg/kg os): -9 mm Hg; Change in BP, 1 hr after dose, fourth day ([1]; 5 mg/kg os): -26 mm Hg; Change in HR, 1 hr after dose, fourth day ([1]; 5 mg/kg os): -20 b/min; Change in HR, 5 hr after dose, fourth day ([1]; 5 mg/kg os): -25 b/min; Change in BP, 5 hrs after dose, fourth day ([1]; 5 mg/kg os): -11 mm Hg; LD50 at 168 h [2]: 500 mg/kg

— patent publication US4321381A, “Ergot derivatives” (Farmitalia Carlo Erba S.p.A., priority 1978, dated 1982)
